The source of these data is patent US11918565B1, “Treatment of post-operative pain via sciatic nerve block with sustained-release liposomal anesthetic compositions” (Pacira Pharmaceuticals, Inc., priority 2022, dated 2024).

Assay [1] concerns subjects undergoing bunionectomy (postsurgical pain, operative foot). In words: NRS pain intensity scores after sciatic (popliteal fossa) nerve block, Phase 3 clinical trial #1. Type of assay: in vivo, human. The method, then:
Clinical Study #1 was a Phase 3, multicenter, randomized, double-blind, active-controlled study in 180 subjects undergoing bunionectomy. Subjects received a sciatic (in the popliteal fossa) nerve block with a single dose of either […] 266 mg ([…] 133 mg (EXP133), or 0.25% bupivacaine HCl (50 mg; BUP50). The study was conducted in two parts (Part A and Part B). Part A was to be completed and analyzed before enrollment in Part B was initiated. Part A was a 3-arm cohort with 66 subjects undergoing bunionectomy to obtain information on pharmacokinetics (PK), pharmacodynamics (PD), efficacy, and safety. Subjects were randomized (1:1:1) to the EXP266, EXP133, and BUP50 treatment arms. Part B was a 2-arm cohort with 119 subjects undergoing bunionectomy to evaluate the efficacy and safety of […] compared with bupivacaine HCl. The dose of the […] arm in Part B was determined based on the interim analysis of the Part A cohort results. […] An unscheduled pain intensity assessment using the NRS (measured as “On a scale from 0 to 10, where 0 equals no pain and 10 equals the worst possible pain, how much pain are you experiencing in your operative foot right now?”) was to be completed immediately prior to administration of any breakthrough pain medication up to 96 h post-surgery. Medications were administered PRN; opioids were not to be given on a pre-determined schedule. […] All postsurgical analgesics administered, were to be recorded through hospital discharge. […]

The test system of assay [2] is sciatic nerve (motor block) in subjects undergoing bunionectomy. In words: Pharmacodynamics: onset and duration of motor block (foot movement), clinical trial #1 Part A. Type of assay: in vivo, human. Here is the method:
Clinical Study #1 was a Phase 3, multicenter, randomized, double-blind, active-controlled study in 180 subjects undergoing bunionectomy. Subjects received a sciatic (in the popliteal fossa) nerve block with a single dose of either EXPAREL 266 mg (EXP266), EXPAREL 133 mg (EXP133), or 0.25% bupivacaine HCl (50 mg; BUP50). The study was conducted in two parts (Part A and Part B). Part A was to be completed and analyzed before enrollment in Part B was initiated. Part A was a 3-arm cohort with 66 subjects undergoing bunionectomy to obtain information on pharmacokinetics (PK), pharmacodynamics (PD), efficacy, and safety. Subjects were randomized (1:1:1) to the EXP266, EXP133, and BUP50 treatment arms. Part B was a 2-arm cohort with 119 subjects undergoing bunionectomy to evaluate the efficacy and safety of EXPAREL compared with bupivacaine HCl. The dose of the EXPAREL arm in Part B was determined based on the interim analysis of the Part A cohort results.
On the day of surgery, subjects received an ultrasound-guided sciatic (in the popliteal fossa) nerve block with one of the following treatments: • EXP266 arm: subjects randomized to this treatment arm received 20 mL (266 mg) EXPAREL mixed with 10 mL saline (Part A only; per interim analysis was not selected for Part B) • EXP133 arm: subjects randomized to this treatment arm received 10 mL (133 mg) EXPAREL mixed with 20 mL saline (Part A and B) • BUP50 arm: subjects randomized to this treatment arm received 20 mL (50 mg) 0.25% bupivacaine HCl mixed with 10 mL saline (Part A and B)
Efficacy assessments included pain intensity scores focused on the operative foot using the Numeric Rating Scale (NRS), total postsurgical opioid consumption in OMED, time to first opioid consumption post-surgery, and percentage of opioid-free patients through 96 hours, and worst and average NRS pain intensity scores at 24 h, 48 h, 72 h, and 96 h from end of surgery. Additionally, blood samples for pharmacokinetic (PK) analysis (area under the curve [AUC], maximum plasma concentration [Cmax], time of maximum plasma concentration [Tmax], including early and late Cmax and Tmax (EXP133-ADMIX arm only), apparent terminal elimination half-life [t1/2el], apparent clearance [CL/F], and apparent volume of distribution [Vd/F]). Pharmacodynamic (PD) assessment data, including median time to onset of sensory block and motor block, and median duration of sensory and motor block were collected.
Pharmacodynamic endpoints included: onset of sensory block, offset of sensory block, duration of sensory block, onset of motor block, offset of motor block, and duration of motor block.

Setting [3] is: EXP266 Part A, EXP133 and BUP50 Part A+B.

Structures can show the parent of a compound that is named as a salt.

In the case of `CCCCN1CCCCC1C(=O)Nc1c(C)cccc1C` (stereo not shown) [BUP50, bupivacaine HCl], in assay [1] (setting [3]), the “mean AUC of average pain over the last 24 h post-surgery from POD1 through POD4” value turned out to be 16.1 and the “mean AUC of worst pain over the last 24 h post-surgery from POD1 through POD4” value was 25.2. The “time post-surgery at which mean current pain intensity peaked” value in assay [1] (post-surgery) is listed as 36 h. For the same molecule, the “subjects without foot movement at the first time point with ≥50%” value in assay [2] (1 h post-dose for EXP266, 2 h post-dose for EXP133 and BUP50) is on record as 54.5%. Moreover, the “subjects who still did not have complete foot movement” value in assay [2] (84 h post-dose) is 18.2%. Also, the “subjects with motor block onset observed” value in assay [2] (human, in vivo) is 40.9%. Also, the “first time point at which foot movement was not present in ≥50% of subjects” value in assay [2] (post-dose) is given as 2 h.
